Assays:
[1] = Microsomal stability, human liver derived microsomes; type: in vitro ADME
Method: The microsomal stability of F-4N was also assessed (FIG. 28). Compounds were incubated with human or mouse liver derived microsomes. The percent of F-4N recovered was analyzed by LC-MS. Verapamil was used as a control for a rapidly degraded compound. Analysis was performed by Cyprotex (Framingham, MA).

Mdr2-/- mice = assay: Mdr2-/- mouse model of PSC with established liver fibrosis, i.p. treatment; type: in vivo; settings: 10 mg/kg/daily i.p. for 14 days
Method: FIG. 6. Biochemical and histological examination of fibrosis in Mdr2^−/− mice treated with vehicle or F-4N. Mdr2^−/− mice (18-20 weeks old) with established liver fibrosis were treated with F-4N (10 mg/kg/daily i.p. n=10) or vehicle (i.p. n=10) for 14 days, then sacrificed the next day. Liver tissue and serum were collected for analysis. Left panel. […] Right panels.
Hydroxyproline content was measured using a hydroxyproline assay kit (Biovision) according to the manufacturer's instructions with slight modification. The liver tissues were weighed, homogenized in sterile water (10 mg of tissue per 100 μL H2O) and hydrolyzed in 12 M HCl in a pressure-tight, Teflon capped vial at 120° C. for 3 hours followed by filtration through a 45 μm Spin-X Centrifuge Tube filter (Corning). Ten μL of the hydrolyzed samples was dried in a Speed-Vac for 2 hours, followed by incubation with 100 μL of Chloramine T reagent for 5 minutes at room temperature and 100 μL of 4-(dimethylamino)benzaldehyde (DMAB) for 90 minutes at 60° C. The absorbance of oxidized hydroxyproline was determined at 560 nm. Hydroxyproline concentrations were calculated from a standard curve generated using known concentrations of trans-4-hydroxyl-L-proline. The total amount of protein isolated from the weighed tissues was determined by using a protein assay kit (Bio-Rad, absorbance at 595 nm). The amount of collagen was expressed in μg/mg total protein.
The slides were then stained with a solution containing 0.1% picrosirius red (Direct Red 80) and 0.1% fast green (counterstain) in saturated aqueous solution of picric acid, for 60 minutes at room temperature, followed by one wash in distilled water, de-hydration in 3 changes of 100% EtOH, clear in xylene and mount in resinous medium.
Serum alanine aminotransferase (ALT), alkaline phosphatase (ALP) and total bile acids were measured using a commercially available veterinary chemistry analyzer (VetScan 2, Abaxis).
RNA isolation using RNeasy Plus Mini Kit (Qiagen) according to the manufacturer's instructions. Isolated RNA (250 ng) was then used to synthesize cDNA using SuperScript VILO (Invitrogen). Quantitative PCR was performed using FastStart Essential DNA Green Master (Roche) and analyzed using a LightCycler 96 (Roche). Data are expressed as a fold change by ΔΔCt relative to glyceraldehyde-3-phosphate dehydrogenase (GAPDH).

[2] = Stability in human plasma; type: in vitro ADME
Method: The stability of F-4N in plasma was assessed (FIG. 27). Compounds were incubated with human or mouse plasma. The percent of F-4N recovered was analyzed by LC-MS. Warfarin was used as a control for stable compound, and propantheline was used as a control for an unstable compound. Analysis was performed by Cyprotex (Framingham, MA).

[3] = tested on: mice with intratracheal bleomycin injury; assay: Acute exposure bleomycin dose-finding study; type: in vivo, mouse
Method: On day 1 mice received intratracheal sham or bleomycin injury. On day 7 mice were divided into groups and treated daily with vehicle, 10, 30, or 100 mg/kg F-4N by oral gavage for 7 days. On day 14 organs and plasma were collected. Weight changes were measured throughout the experiment (FIG. 24B). Whole lung RNA expression of profibrotic genes as also examined (FIG. 24C). […] F-4N efficacy biomarkers were identified. RNA was collected from vehicle treated mice and from mice treated with 30 mg/kg F-4N. RNA was analyzed using the RT2 Profiler PCR array (Qiagen Catalog No.—330231) which measures expression of 89 different cytokines and chemokines. […] A level of genes whose expression is altered in response to F-4N can be used as a biomarker for F-4N efficacy.

[4] = 30 and 100 mg/kg daily oral gavage, 7 days

O=c1c(O)c(-c2ccc(OCc3ccncc3)cc2)oc2ccccc12 [F—4N]
microsomal stability: half-life and clearance rate [1]: in line with many clinically approved orally administered drugs | reduction of liver collagen content (hydroxyproline assay) compared to vehicle control (Mdr2-/- mice): ~40% | Liver function tests: ALT, ALP and serum bile acid values (Mdr2-/- mice; compared to vehicle): significantly reduced | RT-PCR of whole liver RNA: Col1a1, Il6, Ccl2, Cdkn1a, Cdkn2a (Mdr2-/- mice; compared to vehicle): significantly reduced | Picrosirius red staining of liver collagen fibers (Mdr2-/- mice; particularly portal-to-portal areas): reduction of collagen fibers | stability in plasma (percent recovered, LC-MS) [2]: stable | number of genes with reduced expression (RT2 Profiler PCR array of 89 cytokines and chemokines) ([3]; 30 mg/kg, after 7 days of treatment): 11 genes | weight change [3, 4]: improved weight change | whole lung RNA expression of profibrotic genes [3, 4]: reduced expression

Reference: patent US20250368629A1, “FLAVONOID COMPOUNDS AND METHODS AND MATERIALS FOR USING FLAVONOID COMPOUNDS TO TREAT FIBROTIC CONDITIONS” (Mayo Foundation for Medical Education and Research, priority 2022, published 2025)
